Patent publication US8288390B2, “Benzofuran derivatives” (Takeda Pharmaceutical Company Limited, priority 2009, dated 2012)
Structures can show the parent of a compound that is named as a salt.

Tested on: rat mixed glial culture
Experiment: Activity of promoting neuronal neogenesis in rat mixed glial culture
Assay type: cell-based
Settings: Rattus norvegicus, 72 h, compound 1 μM + rhIGF-1 100 ng/ml, 3 days culture; absorbance at 450 nm (class III beta-tubulin antibody); control rhIGF-1 only = 100%; read-out: Increase Ratio of the Absorbance (% control)
Procedure: From a three-day old SD rat, hippocampus and cerebral cortex were removed. By using a kit of dispersion liquid for neuronal cells (MB-X9901, manufactured by SUMITOMO BAKELITE CO., LTD.), cell suspension was prepared and then seeded on a 96-well plate coated with collagen Type I (4860-010, manufactured by Asahi Techno Glass Co., Ltd.) to 10^5 cells/well. Under the condition of 37° C. and 5% CO2, the cells were cultured for four days in a growth medium (D-MEM/F12 with 10% FBS, comprising PS).
After culturing, the medium was exchanged with a medium for differentiation (D-MEM/F12, comprising PS), added with rhIGF-1 (R&D Systems, 291-G1-250, final concentration of 100 ng/ml) and the compound to 1 μM, followed by further culture for three days. Cultured cells were fixed with 4% paraformaldehyde-PBS (manufactured by MUTO PURE CHEMICALS CO., LTD.) and subjected to membrane penetration using 0.1% Triton X-100 PBS, followed by blocking with Block Ace solution (UK-B80, manufactured by Dainippon Sumitomo Pharma Co., Ltd.). As a primary antibody, Anti-neuron-specific class III beta-tubulin antibody (R&D Systems, MAB1195, clone Tuj-1) was used after 1000× dilution. As a secondary antibody, Anti-Mouse Ig, HRP-Linked F (ab′) 2 Fragment Sheep (Amersham Biosciences, NA9310) was used after 10000× dilution. For washing process, the plate washer (BIO-TEK INSTRUMENTS ELX405) was used. For a chromogenic reaction, the reaction was carried out for 10 minutes using TMB Microwell Peroxidase Substrate System (Kirkegaard & Perry Laboratories, 50-76-00), followed by terminating the reaction according to the addition of 1M phosphoric acid. By using the plate reader (Labsystems Multiskan BICHROMATIC), absorbance at 450 nm was measured.
The absorbance for the case in which no compound is added (i.e., control, rhIGF-1 only) was 100%, and the increase ratio of the absorbance for the compound addition (i.e., compound+rhIGF-1) compared to the control was obtained as % control. Activity of the each compound for promoting neuronal differentiation that is measured according to the above method is summarized in Table 9 and Table 10.

Structure (SMILES)	activity at 1 µM [%]
CCOc1ccc(N2CCN(c3c(C)c4c(c(OCC)c3C)OC(C)C4)CC2)cc1 (centres unmarked) [Example 61, 1-(4-Ethoxyphenyl)-4-(7-ethoxy-2,4,6-trimethyl-2,3-dihydro-1-benzofuran-5-yl)piperazine]	> 500
COc1ccc(N2CCN(c3cc4c(cc3-c3ccc(C)cc3)OC(C)(C)C4)CC2)cc1 [Example 2, 1-[2,2-Dimethyl-6-(4-methylphenyl)-2,3-dihydro-1-benzofuran-5-yl]-4-(4-methoxyphenyl)piperazine]	432
COc1ccc(N2CCN(c3c(C)c4c(c(OC(C)C)c3C)OC(C)C4)CC2)cc1 (centres unmarked) [Example 55, 1-(4-Methoxyphenyl)-4-[2,4,6-trimethyl-7-(1-methylethoxy)-2,3-dihydro-1-benzofuran-5-yl]piperazine]	> 500
COc1ccc(N2CCN(c3c(C)c(C)c4c(c3C)CC(C)(CN3CCC(O)CC3)O4)CC2)cc1 (centres unmarked) [Example 133, 1-({5-[4-(4-methoxyphenyl)piperazin-1-yl]-2,4,6,7-tetramethyl-2,3-dihydro-1-benzofuran-2-yl}methyl)piperidine-4-ol]	> 500
COCC1(C)Cc2c(C)c(N3CCN(c4ccc(OC)cc4)CC3)c(C)c(C)c2O1 (centres unmarked) [Example 101, 1-[2-(Methoxymethyl)-2,4,6,7-tetramethyl-2,3-dihydro-1-benzofuran-5-yl]-4-(4-methoxyphenyl)piperazine hydrochloric acid salt]	> 500
COc1ccc(N2CCN(c3c(C)c(C)c4c(c3C)CC(C)(C)O4)CC2)cn1 [Example 40, 1-(6-Methoxypyridin-3-yl)-4-(2,2,4,6,7-pentamethyl-2,3-dihydro-1-benzofuran-5-yl)piperazine]	341
COc1ccc(N2CCN(c3c(C)c(C)c4c(c3C)CC(C)(CN)O4)CC2)cc1 (centres unmarked) [Example 108, 1-{5-[4-(4-Methoxyphenyl)piperazin-1-yl]-2,4,6,7-tetramethyl-2,3-dihydro-1-benzofuran-2-yl}methaneamine]	282
COc1ccc(N2CCN(c3c(C)c(C)c4c(c3C3CC3)CC(C)(C)O4)CC2)cc1 [Example 7, 1-(4-Cyclopropyl-2,2,6,7-tetramethyl-2,3-dihydro-1-benzofuran-5-yl)-4-(4-methoxyphenyl)piperazine]	325
COc1ccc(C2CN(c3c(C)c(C)c4c(c3C)CC(C)(C)O4)CCO2)cc1 (centres unmarked) [Example 15, 2-(4-Methoxyphenyl)-4-(2,2,4,6,7-pentamethyl-2,3-dihydro-1-benzofuran-5-yl)morpholine]	332
COc1ccc(N2CCN(c3c(C)c(C)c4c(c3C)CC(C)(CNC(C)=O)O4)CC2)cc1 (centres unmarked) [Example 137, N-({5-[4-(4-methoxyphenyl)piperazin-1-yl]-2,4,6,7-tetramethyl-2,3-dihydro-1-benzofuran-2-yl}methyl)acetamide]	> 500
COc1ccc(N2CCN(c3c(C)c(C)c4c(c3C)CC(C)(C)O4)CC2)cc1F [Example 32, 1-(3-Fluoro-4-methoxyphenyl)-4-(2,2,4,6,7-pentamethyl-2,3-dihydro-1-benzofuran-5-yl)piperazine]	> 500
Cc1c(C)c(N2CCN(c3nc(-c4ccccc4)ns3)CC2)c(C)c2c1OC(C)(C)C2 [Example 87, 1-(2,2,4,6,7-Pentamethyl-2,3-dihydro-1-benzofuran-5-yl)-4-(3-phenyl-1,2,4-thiadiazol-5-yl)piperazine]	256
Cc1nn(C)c(C)c1N1CCN(c2c(C)c(C)c3c(c2C)CC(C)(C)O3)CC1 [Example 117, 1-(2,2,4,6,7-Pentamethyl-2,3-dihydro-1-benzofuran-5-yl)-4-(1,3,5-trimethyl-1H-pyrazole-4-yl)piperazine]	100
Cc1c(C)c(N2CCN(c3ccc(S(C)(=O)=O)cc3)CC2)c(C)c2c1OC(C)(C)C2 [Example 92, 1-[4-(Methylsulfonyl)phenyl]-4-(2,2,4,6,7-pentamethyl-2,3-dihydro-1-benzofuran-5-yl)piperazine]	457
COc1cc(N2CCN(c3c(C)c(C)c4c(c3C)CC(C)(C)O4)CC2)ccc1F [Example 38, 1-(4-Fluoro-3-methoxyphenyl)-4-(2,2,4,6,7-pentamethyl-2,3-dihydro-1-benzofuran-5-yl)piperazine]	294
COc1ccc(N2CCN(c3c(C)c(C)c4c(c3C)CC3(CCCC3)O4)CC2)cc1 [Example 19, 1-(4-Methoxyphenyl)-4-(4,6,7-trimethyl-3H-spiro[1-benzofuran-2,1′-cyclopentan]-5-yl)piperazine]	278
C=Cc1c2c(c(C)c(C)c1N1CCN(c3ccc(OC)cc3)CC1)OC(C)(C)C2 [Example 8, 1-(4-Ethenyl-2,2,6,7-tetramethyl-2,3-dihydro-1-benzofuran-5-yl)-4-(4-methoxyphenyl)piperazine]	242
CCc1c2c(c(C)c(C)c1N1CCN(c3ccc(OC)cc3)CC1)OC(C)(C)C2 [Example 9, 1-(4-Ethyl-2,2,6,7-tetramethyl-2,3-dihydro-1-benzofuran-5-yl)-4-(4-methoxyphenyl)piperazine]	228
Cc1c(C)c(N2CCN(c3ccc(C#N)cc3)CC2)c(C)c2c1OC(C)(C)C2 [Example 90, 4-[4-(2,2,4,6,7-Pentamethyl-2,3-dihydro-1-benzofuran-5-yl)piperazin-1-yl]benzonitrile]	> 500
COc1ccc(N2CCN(c3c(C)c(C)c4c(c3-c3ccc(N(C)C)cc3)CC(C)(C)O4)CC2)cc1 [Example 5, 4-{5-[4-(4-Methoxyphenyl)piperazin-1-yl]-2,2,6,7-tetramethyl-2,3-dihydro-1-benzofuran-4-yl}-N,N-dimethylaniline]	488
COc1ccc(N2CCN(c3c(C)c4c(c(OC)c3C)OC(C)C4)CC2)cc1F (centres unmarked) [Example 59, 1-(3-Fluoro-4-methoxyphenyl)-4-(7-methoxy-2,4,6-trimethyl-2,3-dihydro-1-benzofuran-5-yl)piperazine]	478
Cc1cc(N2CCN(c3c(C)c(C)c4c(c3C)CC(C)(C)O4)CC2)ccc1F [Example 35, 1-(4-Fluoro-3-methylphenyl)-4-(2,2,4,6,7-pentamethyl-2,3-dihydro-1-benzofuran-5-yl)piperazine]	182
Cc1c(C)c(N2CCOC(Cc3ccccc3)C2)c(C)c2c1OC(C)(C)C2 (centres unmarked) [Example 16, 2-Benzyl-4-(2,2,4,6,7-pentamethyl-2,3-dihydro-1-benzofuran-5-yl)morpholine]	344

Same assay, conditions: compound 1 μM + rhIGF-1 100 ng/ml, 3 days culture; absorbance at 450 nm (class III beta-tubulin antibody); control rhIGF-1 only = 100%

Structure (SMILES)	Increase Ratio of the Absorbance (% control)
COc1ccc(N2CCN(c3c(C)c(C)c4c(c3C)CC(C)(CO)O4)CC2)cc1 (single isomer, unassigned; (+)) [Example 144, (+)-{5-[4-(4-methoxyphenyl)piperazin-1-yl]-2,4,6,7-tetramethyl-2,3-dihydro-1-benzofuran-2-yl}methanol]	>500
COc1ccc(N2CCN(c3c(C)c(C)c4c(c3C)CC(C)(CO)O4)CC2)cc1 (single isomer, unassigned; (-)) [Example 143, (−)-{5-[4-(4-methoxyphenyl)piperazin-1-yl]-2,4,6,7-tetramethyl-2,3-dihydro-1-benzofuran-2-yl}methanol]	>500
COc1ccc(N2CCN(c3c(C)c(C)c4c(c3C)CC(C)(CO)O4)CC2)cc1 (centres unmarked) [Example 97, {5-[4-(4-Methoxyphenyl)piperazin-1-yl]-2,4,6,7-tetramethyl-2,3-dihydro-1-benzofuran-2-yl}methanol]	439
